Measurements from US9125898B2, “Acetam derivatives for pain relief” (NEUROTUNE AG, priority 2008, dated 2015).
Entries after “also recorded” stand apart in the source; their conditions may differ.

Experiments:
[1] = tested on: MIA induced hyperalgesia in the rat; test: MIA induced hyperalgesia in the rat (paw-pressure test); assay type: in vivo; conditions: for Mechanical threshold, before treatment, first day basal: baseline; for Effect of a single oral dose on mechanical threshold (in words): single oral dose after saline b.i.d. for 14 days (NT-11624 150 mg/kg, tramadol 40 mg/kg); for Antihyperalgesic activity after the last treatment (in words): treatment for 14 days b.i.d. p.o. (NT-11624 150 mg/kg, tramadol 40 mg/kg)
Description: Peripheral neuropathic induced in rats by administration into the left knee joint of MIA mimics chronic pain condition of osteoarthritis found in a large part of population over 60 years. The MIA test represents an useful and predictive model to study the anti-hyperalgesic potential of a drug in human osteoarthritic condition.
Drugs: The following substances were used: NT-11624 (batch n 66-MM3/16 supplied by Brane Discovery Sri, Gerenzano Italy) and tramadol (Tocris, UK). […] Control rats received saline only.
Sodium monoiodoacetate injection: A single intra-articular injection of sodium iodoacetate (MIA) was introduced into the right knee joint. […] Briefly, rats were deeply anaesthetized by ethylic ether. Following abolition of the hindpaw pinch withdrawal reflex, a 27-gauge needle was introduced into the joint cavity between the tibial plateau and femoral condyles. Once in place, 2 mg of MIA were solubilized in a volume of 25 ul and injected into the joint and the animal was allowed to recover for 14 days prior to pain assessment. It has consistently been shown that this dose of MIA causes osteoarthritic-like focal lesions in articular cartilage and subchondral bone thickening 14 days after administration Guingamp C. et al. Arthritis Rheum 40, 1670-9 (1997). Therefore this model can easily and quickly reproduce osteoarthritic-like lesions and functional impairment in rats, similar to that observed in human disease.
The administration of MIA induces in rats a hyperalgesic response to mechanical stimuli that reaches its statistical significance 5 days after administration and persists for 4 weeks (Fernihough et al. Pain 112:83-93 (2004)).
Control rats were treated with an equal volume of saline. […]
Starting from day 17 after MIA injection, paw pressure tests were performed.
Mechanical hyperalgesia: Paw mechanical sensitivity was determined using a Randall & Selitto apparatus exerting a force that increases at constant rate (32 g/s). The stimulus at which rats withdrawn the paw was evaluated before treatment (First day basal) and at the end of the treatment as following: before last treatment (pre-dose), and after last treatment (15, 30, 45, 60 min, 24, 48 and 72 h).
Results represent the mean of mechanical thresholds expressed as grams. To avoid any possible damage to the animal paw the maximum applied force was fixed at 240 g.

[2] = tested on: ddC induced mechanical allodynia in rats; test: ddC induced mechanical allodynia in rats, von Frey test; assay type: in vivo, rat; conditions: for Reversal of ddC-induced neuropathy (mechanical threshold, von Frey): FIG. 4, 15 min after drug administration
Procedure: Painful peripheral NP may be induced in rats by i.v. administration of 2′,3′-dideoxycytidine (ddC) mimicking what is seen in AIDS patients undergoing antiviral therapy. The ddC test represents a useful and predictive model to study molecules with analgesic potential in human neuropathic states.
Adult male SD rats (Harlan, Italy, 150-200 g weight) were used. Animals were treated with 25 mg/kg i.v. bolus of 2′,3′-dideoxycytidine, an inhibitor of nucleoside reverse transcriptase used for AIDS therapy that in rodents induces a peripheral neuropathy resulting in allodynic responses to mechanical stimuli. Symptoms severity peaks between 5 to 10 days after administration (Joseph, E. K. et al. —Pain 107 (2004) 147-158). Ten days after administration of ddC, as an intravenous (i.v.) bolus, test substances were administered every day, once a day or b.i.d for 4 weeks. Dosing was withheld in those days in which allodynic tests were performed, and lasted for 24 h and 48 h.
NT-11624 was dissolved in distilled water and was orally by gavage administered as follows • Group 1: 100 mg/kg b.i.d. for 14 days, followed by 50 mg/kg b.i.d. for 7 days, then 50 mg/kg u.i.d. for 7 days. • Group 2: 50 mg/kg b.i.d. for 28 days.
Pregabalin (3B Pharmachem (Wuhan) International Co.) was dissolved in 1% CMC (carboxymethylcellulose) and orally administered at the dose of 15 mg/kg b.i.d. for 28 days.
Thresholds for mechanical allodynia were measured using an electronic Von Frey apparatus. […] After 4 week drug administration, additional tests were performed beyond the 60 min point, at 4, 8, 24, 48 and 56 h. Results represent the mean (±S.E.M.) of mechanical thresholds expressed in grams.
Drugs: The following substance was used: NT-11624 (batch No. 0000104580 supplied by Brane Discovery Srl, Gerenzano Italy). NT-11624 was dissolved in distilled water and given p.o. every day, except in those days in which allodynic tests were performed and lasted for 24 h, 48 h and 56 h (i.e. days 1, 3, 7, 10, 14, 21, 28).
The following groups of treatment were utilized: • NT-11624 (Group 1): rats received 100 mg/kg b.i.d. of NT-11624 for 14 days, then 50 mg/kg b.i.d. for 7 days, then 50 mg/kg u.i.d. for 7 days. • NT-11624 (Group 2): rats received 50 mg/kg b.i.d. for 28 days • Pregabalin: rats received 15 mg/kg b.i.d. for 28 days
Administration volume was 10 ml/kg body weight. Pregabalin [3B Pharmachem (Wuhan), International Co] was dissolved in CMC 1% (carboxymethylcellulose, Sigma-Aldrich, Italy), and orally given as described before. Control rats received vehicle only.
ddC intravenous injection: ddC was dissolved in saline to a concentration of 25 mg/kg (1 ml) and was administered i.v. into the rat tail vein. Control rats were treated with an equal volume of saline i.v.
The administration of ddC produces dose-dependent mechanical hypersensitivity and allodynia peaking in severity between 5-10 days after the administration. The test is usually performed at day 10.
Von Frey test: Each animal was placed in a chamber with a mesh metal floor covered by a plastic dome that enabled the animal to walk freely, but not to jump. The mechanical stimulus was then delivered in the mid-plantar skin of left hind paw using an electronic Von Frey apparatus (37400 Dynamic Plantar Aesthesiometer; Ugo Basile, Comerio, Varese, Italy). The cut-off was fixed at 50 g, while the increasing force rate (ramp duration) was settled at 20 sec. […] At day 28, additional tests were performed at 4, 8, 24, 48 and 56 h after drug administration. Results represent the mean (±S.E.M.) of mechanical thresholds expressed as grams.

[3] = MIA rats, 14 days b.i.d. p.o. (NT-11624 150 mg/kg, tramadol 40 mg/kg)
[4] = MIA rats, 14 days b.i.d. p.o., NT-11624 150 mg/kg
[5] = MIA rats, groups later treated 14 days b.i.d. p.o. (NT-11624 150 mg/kg, tramadol 40 mg/kg)
[6] = MIA rats, single administration groups (saline 14 days b.i.d. first)
[7] = MIA rats, single administration on saline b.i.d., before the single p.o. dose (NT-11624 150 mg/kg, tramadol 40 mg/kg)
[8] = MIA rats, single p.o. administration on saline b.i.d. (NT-11624 150 mg/kg, tramadol 40 mg/kg)
[9] = Group 1 down-titration schedule, p.o.
[10] = Group 2: 50 mg/kg b.i.d. p.o. for 28 days, 50 mg/kg
[11] = 15 mg/kg b.i.d. p.o. for 28 days

Row | Compound | Mechanical threshold, after last treatment 15 min [1, 3] [g] | Mechanical threshold, after last treatment 30 min [1, 3] [g] | Mechanical threshold, after last treatment 45 min [1, 3] [g] | Mechanical threshold, before treatment, first day basal [1, 5] [g] | Mechanical threshold, before treatment, first day basal [1, 6] [g] | Mechanical threshold, before last treatment, pre-dose [1, 7] [g] | Mechanical threshold, after last treatment 15 min [1, 8] [g] | Mechanical threshold, after last treatment 30 min [1, 8] [g] | Mechanical threshold, after last treatment 45 min [1, 8] [g] | Effect of a single oral dose on mechanical threshold (in words) [1] | Antihyperalgesic activity after the last treatment (in words) [1] | Reversal of ddC-induced neuropathy (mechanical threshold, von Frey) [2] | further results
1 | O=C1CN2C(=O)CCC2N1 (centres unmarked) [NT-11624, 2,5-dioxohexahydro-1H-pyrrolo[1,2-a]imidazole] | 72.6 ± 4.1 | 75.0 ± 2.2 | 70.5 ± 2.7 | 63.5 ± 3.2 | 60.4 ± 2.7 | 23.9 ± 3.5 | 33.8 ± 3.1 | 39.3 ± 2.8 | 26.2 ± 3.1 | significant increase of mechanical threshold only at 30 min | completely protects from MIA-induced hyperalgesia up to 24 h | fully reverts | Anti-hyperalgesic effect 15 min until 48 h after last dosing ([1]; 150 mg/kg b.i.d. oral, 2 weeks): lasted throughout the experiment; Paw pressure hyperalgesic response at the pre last administration test ([1]; 75 and 150 mg/kg b.i.d. oral, 2 weeks, 13 h after the evening administration of the previous day): significant reduction of the hyperalgesia; Mechanical threshold, before last treatment, pre-dose [1, 3]: 65.1 ± 2.5 g; Mechanical threshold, after last treatment 60 min [1, 4]: 60.6 ± 4.2 g; Mechanical threshold, after last treatment 24 h [1, 4]: 55.3 ± 4.8 g; Mechanical threshold, after last treatment 48 h [1, 4]: 43.9 ± 4.0 g; Mechanical threshold, after last treatment 72 h ([1]; MIA rats, 14 days b.i.d. p.o., NT-11624 150 mg/kg, mean of 4 rats): 34.8 ± 3.7 g; Antihyperalgesic activity at 48 h after the last treatment ([1]; NT-11624 150 mg/kg p.o., 14 days b.i.d.): statistically significant activity; Duration of beneficial effect after last dosing ([1]; after a 2 week oral b.i.d. treatment): at least 48 h; Onset of anti-allodynic effect ([2]; Group 1: 100 mg/kg b.i.d. 14 days, then 50 mg/kg b.i.d. 7 days, then 50 mg/kg u.i.d. 7 days, p.o.): starting from the third day; also recorded: as of day 3; Anti-allodynic effect 56 h from the last administration [2, 9]: still significant protection; also recorded: robust effect; Anti-allodynic effect at day 14 [2, 9]: complete protection; Anti-allodynic effect up to 48 h from the last administration (day 28) [2, 9]: full reversal of allodynia; Effect up to 24 h after the last administration ([2]; Group 2: 50 mg/kg b.i.d. p.o. for 28 days): clearly evident; Effect 48 h after the last administration [2, 10]: still significant; also recorded: still evident; Onset of anti-pain response [2, 10]: starting from day 10; also recorded: as of day 10
2 | CC(C)C[C@H](CN)CC(=O)O [Pregabalin, reference compound] |  |  |  |  |  |  |  |  |  |  |  |  | Onset of effect on allodynic threshold ([2]; 15 mg p.o. b.i.d.): modest but significant effect already from day 1; Day of peak effect [2, 11]: 14 days; Effect of the last administration on day 28 [2, 11]: moderate beneficial effect that disappeared after 8 h
3 | COc1cccc(C2(O)CCCCC2CN(C)C)c1 (centres unmarked) [TRAMADOL, tramadol, reference compound] | 38.8 ± 2.2 | 36.4 ± 2.9 | 32.8 ± 3.4 | 59.2 ± 3.1 | 62.8 ± 3.0 | 25.5 ± 3.8 | 39.2 ± 4.1 | 43.4 ± 3.6 | 36.2 ± 3.4 | significant anti-hyperalgesic effect from 15 to 60 min | only a weak antihyperalgesic activity 15 and 30 min after the last treatment |  | Mechanical threshold, after last treatment 60 min ([1]; MIA rats, single p.o. administration on saline b.i.d., tramadol 40 mg/kg): 27.2 ± 3.4 g
4 | CC[C@@H](C(N)=O)N1CCCC1=O [levetiracetam, reference compound] |  |  |  |  |  |  |  |  |  |  |  | not | 
